Experimental findings from PubChem BioAssay (NCI) are described below.

Where “and” joins values, the source holds several entries; their conditions need not be identical. Identical values can stand only once.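 Cultured in 96-well plates, cells were exposed to test compound for 48 hours across five concentrations. GI50 marks 50% less growth. TGI: total growth inhibition.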 A value given as a limit tells only on which side of the number the result lay.

Common to all, as to assay: inhibition of tumour cell growth, NCI panel, 48 h
In assay [1] the test system is COLO 205 colon.
The subject of assay [2] is LOX IMVI melanoma.
The test system of assay [3] is HCC-2998 colon.
For assay [4], the system named is A498 renal.
In assay [5] the test system is NCI-H460 lung.
The subject of assay [6] is SW-620 colon.
In assay [7] the test system is M14 melanoma.
Assay [8] relates to 786-0 renal.
The subject of assay [9] is SF-539 CNS.
Assay [10] relates to NCI/ADR-RES ovarian.

Consider `NC(=O)c1c(NC(=O)c2ccc(C(F)(F)F)cc2Cl)sc2c1CCC(=O)C2`, for which the GI50 in [1] is 0.382 µM; in [2], 383 nM; in assay [4], 1950 nM; in assay [5] it was 1290 nM; in [6] it was 176 nM; in assay [7] it was 355 nM. The GI50 in assay [8] was 0.475 µM; in assay [9] it was 280 nM; in [10] it was 0.448 µM. In addition, the TGI in [1] came to 1.49 µM; in [2], 1.83 µM; in assay [3], 3.36 µM; in [4], 6.37 µM; in [5], 9.48 µM; in assay [6], 1.36 µM. Also, the TGI turned out to be 1.89 µM in assay [7], 15.6 µM in assay [8], 1.04 µM in assay [9] and 3.38 µM in [10].

Turning to `O=C1/C(=C/c2ccc([N+](=O)[O-])s2)Oc2ccc(Br)cc21`, the GI50 is 0.47 µM in assay [1]; 209 nM in [2]; 443 nM in [3]; 2310 nM in [4]; 396 nM in assay [5]; 242 nM in assay [6]. Moreover, the GI50 was 423 nM in assay [7], 0.565 µM in assay [8], 212 nM in assay [9] and 0.497 µM in [10]. The TGI stood at 1.86 µM in assay [1]; 0.486 µM in assay [2]; 1.68 µM in [3]; 6.32 µM in assay [4]; 1.63 µM in assay [5]; 0.664 µM in assay [6]. For the same molecule, the TGI in assay [7] was 1.9 µM; in assay [8] it was 4.84 µM; in assay [9] it was 0.517 µM; in [10], 4.91 µM.

Consider `O=C(N/N=C/c1coc2ccc(Cl)cc2c1=O)c1cc(O)c(O)c(O)c1`, for which the GI50 is 55.7 µM in [1]; 22500 nM in [2]; 15900 nM in assay [3]; 13600 nM in assay [4]; greater than 100000 nM in [5]; 25800 nM in [6]. In addition, the GI50 in [7] was 19300 nM; in assay [8], 23.4 µM; in assay [9], 23600 nM; in assay [10], 17.8 µM. Further, the TGI was greater than 100 µM in assay [1]; 56.6 µM in assay [2]; 35.3 µM in assay [3]; 42.3 µM in [4]; greater than 100 µM in assay [5]; 97.4 µM in assay [6]. In addition, the TGI amounted to 47 µM in assay [7], 66 µM in assay [8], 62.7 µM in assay [9] and 50.2 µM in [10].

With `CCN(CC)CCNc1ccc2nc(C)n3c4ccc(OC)cc4c(=O)c1c23`, the TGI in [1] turned out to be 13 µM; in assay [2] it was 2.55 µM; in [3] it was 6.2 µM; in assay [4], 20.6 µM; in [5], 2.42 µM; in [6], 9.27 µM. The TGI was 24.1 µM in [7], 7.88 µM in assay [8], 18.7 µM in assay [9] and 15.1 µM in [10].

As for `CCc1n(Cc2ccc3ccccc3c2)cc[n+]1Cc1ccc2ccccc2c1`, the GI50 in assay [1] was 0.376 µM; in assay [2] it was 649 nM; in assay [3], 518 nM; in assay [4] it was 1130 nM; in assay [5] it was 724 nM; in [6], 964 nM. Besides, the GI50 in [7] was 1210 nM; in [8], 1.52 µM; in assay [9] it was 800 nM; in assay [10] it was 19.2 µM. In addition, the TGI in [1] turned out to be 1.73 µM; in assay [2] it was 1.96 µM; in assay [3], 1.85 µM; in [4] it was 4.15 µM; in assay [5], 2.15 µM; in assay [6], 2.55 µM. Also, the TGI in assay [7] worked out at 2.96 µM; in assay [8] it was 3.04 µM; in assay [9], 2.3 µM; in assay [10], 62.4 µM.

Regarding `CC12CC(Br)(Br)C(=O)C3C1CCCC32`, the TGI in [1] amounted to 5.16 µM; in assay [2], 7.67 µM; in assay [3], 13.8 µM; in [4], 31.1 µM; in [5], 31.7 µM; in assay [6] it was 5.22 µM. For the same molecule, the TGI was 10.1 µM in assay [7], 9.32 µM in assay [8], 23 µM in assay [9] and 6.8 µM in [10].

`O=NN(CC(=O)NNc1ccccc1)CC(=O)NNc1ccccc1`: the GI50 is 5.69 µM in [1]; 1220 nM in [2]; 4890 nM in [3]; greater than 100000 nM in [4]; 4340 nM in assay [5]; 4210 nM in [6]. Moreover, the GI50 in assay [7] was 3800 nM; in assay [8] it was 7.85 µM; in [9], 2840 nM; in [10] it was 14.2 µM. Further, the TGI in [1] is greater than 59.2 µM; in assay [2] it was greater than 100 µM; in assay [3], greater than 100 µM; in [4] it was greater than 100 µM; in assay [5] it was greater than 100 µM; in assay [6] it was greater than 100 µM. Moreover, the TGI in assay [7] is greater than 100 µM; in assay [8], greater than 100 µM; in [9], 10.1 µM; in assay [10], greater than 100 µM.

`Cc1ccc(-c2csc3ncnc(Nc4cccc(O)c4)c23)cc1`: the GI50 in [1] is 36.4 µM; in [2], 25900 nM; in assay [3], 17200 nM; in assay [4], 30800 nM; in assay [5] it was 29200 nM; in assay [6], 42400 nM. Moreover, the GI50 in [7] was 17900 nM; in assay [8], 19.9 µM; in [9], 37700 nM; in assay [10], 24.7 µM. For the same molecule, the TGI in assay [1] is greater than 100 µM; in assay [2], 62 µM; in [3], 34.1 µM; in assay [4], 66.5 µM; in assay [5] it was 76.3 µM; in assay [6], greater than 100 µM. Moreover, the TGI was 37.3 µM in assay [7], 42.8 µM in assay [8], greater than 100 µM in assay [9] and 60.3 µM in assay [10].

On to `CC(C)C[C@H](NC(=O)[C@@H](N)Cc1cccc2ccccc12)B(O)O`, for which the GI50 is 1.92 µM in assay [1]; 184 nM in [2]; 21 nM in [3]; 202 nM in assay [4]; 1360 nM in [5]; 231 nM in assay [6]. Moreover, the GI50 in [7] is 206 nM and 37.4 nM; in [8], 0.207 µM; in assay [9] it was 178 nM; in [10], 1.39 µM and 0.183 µM.

For `CCCCCCCCCCCCNCCCc1ccccc1`, the GI50 in assay [1] is 1.87 µM; in assay [2], 1770 nM; in assay [3], 1750 nM; in [4] it was 2300 nM; in [5] it was 1830 nM; in [6], 1640 nM. The GI50 was 1760 nM in assay [7], 1.8 µM in assay [8], 1890 nM in assay [9] and 1.77 µM in [10]. Further, the TGI worked out at 3.43 µM in [1]; 3.24 µM in assay [2]; 3.23 µM in assay [3]; 6.69 µM in [4]; 3.4 µM in assay [5]; 3.28 µM in assay [6]. Further, the TGI in assay [7] was 3.25 µM; in assay [8] it was 3.33 µM; in [9], 3.32 µM; in assay [10], 3.5 µM.

On to `Nc1ccccc1SC(CC(=O)c1ccccc1)c1c(Cl)cccc1Cl` (centres undefined), for which the GI50 in [1] was 10.9 µM; in assay [2], 1590 nM; in [3], 2610 nM; in [4] it was 11200 nM; in [5] it was 4590 nM; in [6], 2280 nM. The GI50 was 3250 nM in assay [7], 9.73 µM in assay [8], 6170 nM in assay [9] and 3.72 µM in assay [10]. Besides, the TGI in assay [1] stood at 29.9 µM; in assay [2] it was 3.2 µM; in assay [3], 5.73 µM; in assay [4], 24 µM; in assay [5] it was 17.6 µM; in assay [6], 5.21 µM. Besides, the TGI in assay [7] is 12.9 µM; in assay [8] it was 23.2 µM; in [9], 20.5 µM; in assay [10] it was 28.5 µM.

Consider `O=C1C2C3C=CC(C2C(=O)N1CN1CCOCC1)C1C2C(=O)N(CN4CCOCC4)C(=O)C2C31` (centres undefined), for which the TGI is greater than 56.9 µM in assay [1]; greater than 60.9 µM in [2]; greater than 61.2 µM in assay [3]; greater than 100 µM in [4]; greater than 57.5 µM in [5]; greater than 69.8 µM in assay [6]. In addition, the TGI in [7] was greater than 57.2 µM; in assay [8] it was greater than 60.9 µM; in [9] it was greater than 79.6 µM; in assay [10] it was greater than 100 µM.

As for `C(#Cc1ccccc1C#Cc1cnccn1)c1cnccn1`, the GI50 in [1] was 54.8 µM; in assay [2], 17300 nM; in assay [3], 32200 nM; in assay [4], 20200 nM; in [5], 18300 nM; in assay [6] it was 40200 nM. Besides, the GI50 is 19300 nM in assay [7], 30.5 µM in assay [8], 27800 nM in [9] and 23.2 µM in assay [10]. The TGI was greater than 100 µM in [1]; 53.4 µM in assay [2]; greater than 100 µM in [3]; 72.1 µM in [4]; greater than 71.9 µM in [5]; greater than 100 µM in assay [6]. The TGI is 48.9 µM in assay [7], greater than 100 µM in assay [8], greater than 100 µM in [9] and greater than 75.8 µM in [10].
